SMILES strings stand for the structures.

By IC50 is commonly meant the concentration that gives 50% inhibition.

The target in experiment [1] is Casein kinase II subunit alpha' (Homo sapiens, UniProt P19784). Put plainly: Inhibition of GST-tagged full-length purified human CK2a2 using RRRDDDSDDD substrate incubated for 120 mins in presence of [33P]ATP by scintillation counting based biochemical assay.
The target in experiment [2] is T1, PAS domain-containing serine/threonine-protein kinase (Homo sapiens, UniProt Q96RG2). Nature of the experiment: Inhibition of N-terminal GST-tagged human recombinant PASK kinase domain (879 to 1323 residues) expressed in insect cells using MBP protein substrate incubated for 120 mins in presence of [33P]ATP by scintillation counting based radiochemical assay.
T1 sequence (Q96RG2 whole entry, the tested form may be a part): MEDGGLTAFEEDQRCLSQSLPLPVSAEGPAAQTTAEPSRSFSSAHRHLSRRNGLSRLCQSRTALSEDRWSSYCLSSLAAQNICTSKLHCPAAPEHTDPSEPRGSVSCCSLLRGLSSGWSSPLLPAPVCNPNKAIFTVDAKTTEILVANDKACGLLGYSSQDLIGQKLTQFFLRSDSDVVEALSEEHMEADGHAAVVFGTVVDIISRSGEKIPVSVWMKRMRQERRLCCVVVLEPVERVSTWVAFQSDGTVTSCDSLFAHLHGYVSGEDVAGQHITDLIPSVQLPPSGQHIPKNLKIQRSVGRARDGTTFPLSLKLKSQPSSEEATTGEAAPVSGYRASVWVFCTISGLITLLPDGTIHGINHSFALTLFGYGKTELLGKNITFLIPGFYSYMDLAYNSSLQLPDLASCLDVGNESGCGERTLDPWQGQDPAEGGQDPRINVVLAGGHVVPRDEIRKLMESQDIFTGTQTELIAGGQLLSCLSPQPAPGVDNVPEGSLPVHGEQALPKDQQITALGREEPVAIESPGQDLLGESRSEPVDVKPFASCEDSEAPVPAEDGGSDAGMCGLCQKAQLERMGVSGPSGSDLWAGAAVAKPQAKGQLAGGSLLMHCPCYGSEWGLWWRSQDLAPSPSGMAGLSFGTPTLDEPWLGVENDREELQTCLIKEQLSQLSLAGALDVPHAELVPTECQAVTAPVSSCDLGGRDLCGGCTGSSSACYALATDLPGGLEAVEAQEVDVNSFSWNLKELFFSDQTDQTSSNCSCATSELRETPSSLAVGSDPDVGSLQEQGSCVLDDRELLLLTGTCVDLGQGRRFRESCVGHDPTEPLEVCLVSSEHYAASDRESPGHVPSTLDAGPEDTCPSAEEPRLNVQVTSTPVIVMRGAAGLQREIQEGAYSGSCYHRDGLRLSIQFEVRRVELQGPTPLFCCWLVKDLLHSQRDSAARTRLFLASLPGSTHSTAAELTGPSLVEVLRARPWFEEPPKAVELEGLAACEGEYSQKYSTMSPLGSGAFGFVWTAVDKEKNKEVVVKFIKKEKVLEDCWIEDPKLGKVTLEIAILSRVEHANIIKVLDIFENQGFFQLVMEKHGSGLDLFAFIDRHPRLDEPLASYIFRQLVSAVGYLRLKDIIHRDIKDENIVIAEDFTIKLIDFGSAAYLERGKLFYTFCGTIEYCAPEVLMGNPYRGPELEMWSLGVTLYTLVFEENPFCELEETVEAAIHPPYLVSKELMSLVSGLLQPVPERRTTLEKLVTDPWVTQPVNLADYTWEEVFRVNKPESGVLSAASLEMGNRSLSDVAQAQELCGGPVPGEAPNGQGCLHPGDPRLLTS
Experiment [3] addresses Serine/threonine-protein kinase pim-1 (Homo sapiens, UniProt P11309). Put plainly: Inhibition of human full-length 6xHis-tagged PIM1 expressed in insect cells using S6K1Rsk2 peptide-2 substrate in presence of [33P]ATP incubated for 120 mins by scintillation counting based biochemical assay.
Experiment [4] has as its target T1, PAS domain-containing serine/threonine-protein kinase. Put plainly: Inhibition of human recombinant PASK using Ulight-peptide substrate incubated for 2 hrs by TR-FRET assay. Background: Time-resolved FRET reads energy transfer from a long-lived donor to a nearby acceptor.

Casein kinase II subunit alpha', sequence (P19784 whole entry, the tested form may be a part): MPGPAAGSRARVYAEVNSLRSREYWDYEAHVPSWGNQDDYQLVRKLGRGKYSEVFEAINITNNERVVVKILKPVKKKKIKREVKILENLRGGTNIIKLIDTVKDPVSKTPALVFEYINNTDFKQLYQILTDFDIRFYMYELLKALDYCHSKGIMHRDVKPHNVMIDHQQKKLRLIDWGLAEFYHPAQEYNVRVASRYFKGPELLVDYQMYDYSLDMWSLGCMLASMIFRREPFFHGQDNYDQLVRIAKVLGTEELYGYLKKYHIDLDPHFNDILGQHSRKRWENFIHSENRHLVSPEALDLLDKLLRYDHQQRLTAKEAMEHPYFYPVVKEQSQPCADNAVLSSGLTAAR
Serine/threonine-protein kinase pim-1, sequence (P11309 whole entry, the tested form may be a part): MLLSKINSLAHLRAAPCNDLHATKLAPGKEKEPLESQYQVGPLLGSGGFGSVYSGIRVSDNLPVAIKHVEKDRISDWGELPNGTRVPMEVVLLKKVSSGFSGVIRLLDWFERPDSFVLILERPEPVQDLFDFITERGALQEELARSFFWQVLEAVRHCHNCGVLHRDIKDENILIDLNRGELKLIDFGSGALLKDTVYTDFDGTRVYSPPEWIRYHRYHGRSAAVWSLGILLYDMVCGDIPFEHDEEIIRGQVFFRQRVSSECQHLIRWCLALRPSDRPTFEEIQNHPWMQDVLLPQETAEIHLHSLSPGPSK

In the case of `COc1cc(-c2cc(=O)n3ncc(CC#N)c3[nH]2)ccc1Cl`, the 50% inhibitory concentration (IC50) in experiment [1], in experiment [2] and in experiment [3] was ≤ 10 µM each time.
For `CCc1cnc(-c2cnn3c(=O)cc(-c4ccc5c(cnn5CC)c4)[nH]c23)o1`, the IC50 in experiment [1], in experiment [2] and in experiment [3] was ≤ 10 µM each time.
As to `Cc1coc(-c2cnn3c(=O)cc(-c4ccc5[nH]ncc5c4)[nH]c23)n1`, the half-inhibitory concentration (IC50) in experiment [4] was ≤ 10 µM.
